From ChEMBL document CHEMBL4177586, “Small molecule adjuvants that suppress both chromosomal and mcr-1 encoded colistin-resistance and amplify colistin efficacy in polymyxin-susceptible bacteria” (Bioorg Med Chem, 2017)
In brackets after ≈: the same amount, converted by molar mass.

How the values were obtained:
Acinetobacter baumannii [1] = test: Potentiation of colistin-induced antimicrobial activity against Acinetobacter baumannii SM1536 expressing mcr1 gene assessed as colistin MIC at 30 uM incubated for overnight duration by CLSI based method (reference value: 64 ug/ml); assay type: functional
Escherichia coli [2] = test: Potentiation of colistin-induced antimicrobial activity against Escherichia coli YD626 expressing mcr1 gene assessed as colistin MIC at 30 uM incubated for overnight duration by CLSI based method (reference value: 4 ug/ml); assay type: functional
Klebsiella pneumoniae [3] = test: Potentiation of colistin-induced antimicrobial activity against Klebsiella pneumoniae 2210291 expressing mcr1 gene assessed as colistin MIC at 30 uM incubated for overnight duration by CLSI based method (reference value: 16 ug/ml); assay type: functional
Acinetobacter baumannii [4] = test: Potentiation of colistin-induced antimicrobial activity against Acinetobacter baumannii ATCC 17978 expressing mcr1 gene assessed as colistin MIC at 15 uM incubated for overnight duration by CLSI based method (reference value: 16 ug/ml); assay type: functional
Acinetobacter baumannii [5] = test: Potentiation of colistin-induced antimicrobial activity against Acinetobacter baumannii SM1536 expressing mcr1 gene assessed as colistin MIC at 15 uM incubated for overnight duration by CLSI based method (reference value: 64 ug/ml); assay type: functional
Escherichia coli [6] = test: Potentiation of colistin-induced antimicrobial activity against Escherichia coli ATCC 25922 expressing mcr1 gene assessed as colistin MIC at 15 uM incubated for overnight duration by CLSI based method (reference value: 8 ug/ml); assay type: functional
Escherichia coli [7] = test: Potentiation of colistin-induced antimicrobial activity against Escherichia coli YD626 expressing mcr1 gene assessed as colistin MIC at 15 uM incubated for overnight duration by CLSI based method (reference value: 4 ug/ml); assay type: functional
Klebsiella pneumoniae [8] = test: Potentiation of colistin-induced antimicrobial activity against Klebsiella pneumoniae 2210291 expressing mcr1 gene assessed as colistin MIC at 15 uM incubated for overnight duration by CLSI based method (reference value: 16 ug/ml); assay type: functional
Acinetobacter baumannii [9] = test: Potentiation of colistin-induced antimicrobial activity against Acinetobacter baumannii ATCC 17978 expressing mcr1 gene assessed as reduction in colistin MIC at 30 uM incubated for overnight duration by CLSI based method relative to colistin alone control; assay type: functional
Acinetobacter baumannii [10] = test: Potentiation of colistin-induced antimicrobial activity against Acinetobacter baumannii SM1536 expressing mcr1 gene assessed as reduction in colistin MIC at 30 uM incubated for overnight duration by CLSI based method relative to colistin alone control; assay type: functional
Escherichia coli [11] = test: Potentiation of colistin-induced antimicrobial activity against Escherichia coli ATCC 25922 expressing mcr1 gene assessed as reduction in colistin MIC at 30 uM incubated for overnight duration by CLSI based method relative to colistin alone control; assay type: functional
Klebsiella pneumoniae [12] = test: Potentiation of colistin-induced antimicrobial activity against Klebsiella pneumoniae 2210291 expressing mcr1 gene assessed as reduction in colistin MIC at 30 uM incubated for overnight duration by CLSI based method relative to colistin alone control; assay type: functional
Acinetobacter baumannii [13] = test: Potentiation of colistin-induced antimicrobial activity against Acinetobacter baumannii ATCC 17978 expressing mcr1 gene assessed as reduction in colistin MIC at 15 uM incubated for overnight duration by CLSI based method relative to colistin alone control; assay type: functional
Acinetobacter baumannii [14] = test: Potentiation of colistin-induced antimicrobial activity against Acinetobacter baumannii SM1536 expressing mcr1 gene assessed as reduction in colistin MIC at 15 uM incubated for overnight duration by CLSI based method relative to colistin alone control; assay type: functional
Escherichia coli [15] = test: Potentiation of colistin-induced antimicrobial activity against Escherichia coli ATCC 25922 expressing mcr1 gene assessed as reduction in colistin MIC at 15 uM incubated for overnight duration by CLSI based method relative to colistin alone control; assay type: functional
Escherichia coli [16] = test: Potentiation of colistin-induced antimicrobial activity against Escherichia coli YD626 expressing mcr1 gene assessed as reduction in colistin MIC at 15 uM incubated for overnight duration by CLSI based method relative to colistin alone control; assay type: functional
Acinetobacter baumannii [17] = test: Toxicity against Acinetobacter baumannii ATCC 17978 incubated for overnight duration by CLSI based method; assay type: organism-based; conditions: in vivo
Acinetobacter baumannii [18] = test: Toxicity against Acinetobacter baumannii SM1536 incubated for overnight duration by CLSI based method; assay type: organism-based; conditions: in vivo
Escherichia coli [19] = test: Toxicity against Escherichia coli ATCC 25922 incubated for overnight duration by CLSI based method; assay type: organism-based; conditions: in vivo
Klebsiella pneumoniae [20] = test: Toxicity against Klebsiella pneumoniae 2210291 incubated for overnight duration by CLSI based method; assay type: organism-based; conditions: in vivo
Acinetobacter baumannii [21] = test: Potentiation of colistin-induced antimicrobial activity against Acinetobacter baumannii ATCC 17978 assessed as colistin MIC at 30 uM incubated for overnight duration by CLSI based method (reference value: 2 ug/ml); assay type: functional
Acinetobacter baumannii [22] = test: Potentiation of colistin-induced antimicrobial activity against Acinetobacter baumannii SM1536 assessed as colistin MIC at 30 uM incubated for overnight duration by CLSI based method (reference value: 2 ug/ml); assay type: functional
Escherichia coli [23] = test: Potentiation of colistin-induced antimicrobial activity against Escherichia coli ATCC 25922 assessed as colistin MIC at 30 uM incubated for overnight duration by CLSI based method (reference value: […]); assay type: functional
Escherichia coli [24] = test: Potentiation of colistin-induced antimicrobial activity against Escherichia coli YD626 assessed as colistin MIC at 30 uM incubated for overnight duration by CLSI based method (reference value: 1 ug/ml); assay type: functional
Klebsiella pneumoniae [25] = test: Potentiation of colistin-induced antimicrobial activity against Klebsiella pneumoniae 2210291 assessed as colistin MIC at 30 uM incubated for overnight duration by CLSI based method (reference value: 1 ug/ml); assay type: functional
Acinetobacter baumannii [26] = test: Potentiation of colistin-induced antimicrobial activity against Acinetobacter baumannii ATCC 17978 assessed as reduction in colistin MIC at 30 uM incubated for overnight duration by CLSI based method relative to colistin alone control; assay type: functional
Acinetobacter baumannii [27] = test: Potentiation of colistin-induced antimicrobial activity against Acinetobacter baumannii SM1536 assessed as reduction in colistin MIC at 30 uM incubated for overnight duration by CLSI based method relative to colistin alone control; assay type: functional
Escherichia coli [28] = test: Potentiation of colistin-induced antimicrobial activity against Escherichia coli ATCC 25922 assessed as reduction in colistin MIC at 30 uM incubated for overnight duration by CLSI based method relative to colistin alone control; assay type: functional
Escherichia coli [29] = test: Potentiation of colistin-induced antimicrobial activity against Escherichia coli YD626 assessed as reduction in colistin MIC at 30 uM incubated for overnight duration by CLSI based method relative to colistin alone control; assay type: functional
Acinetobacter baumannii [30] = test: Potentiation of colistin-induced antimicrobial activity against multidrug resistant Acinetobacter baumannii 5075 assessed as minimum drug concentration needed to cause colsitin MIC of 0.125 ug/ml incubated for overnight duration by CLSI based method; assay type: functional
Acinetobacter baumannii [31] = test: Potentiation of colistin-induced antimicrobial activity against multidrug resistant Acinetobacter baumannii BAA1605 assessed as minimum drug concentration needed to cause colsitin MIC of 0.125 ug/ml incubated for overnight duration by CLSI based method; assay type: functional
Klebsiella pneumoniae [32] = test: Potentiation of colistin-induced antimicrobial activity against multidrug resistant Klebsiella pneumoniae BAA2146 assessed as minimum drug concentration needed to cause colsitin MIC of 0.125 ug/ml incubated for overnight duration by CLSI based method; assay type: functional

| Structure (SMILES) | MIC (Acinetobacter baumannii [1]) [µg/mL] | MIC (Escherichia coli [2]) [µg/mL] | MIC (Klebsiella pneumoniae [3]) [µg/mL] | MIC (Acinetobacter baumannii [4]) [µg/mL] | MIC (Acinetobacter baumannii [5]) [µg/mL] | MIC (Escherichia coli [6]) [µg/mL] | MIC (Escherichia coli [7]) [µg/mL] | MIC (Klebsiella pneumoniae [8]) [µg/mL] | fold change (FC) (Acinetobacter baumannii [9]) | fold change (FC) (Acinetobacter baumannii [10]) | fold change (FC) (Escherichia coli [11]) | fold change (FC) (Klebsiella pneumoniae [12]) | fold change (FC) (Acinetobacter baumannii [13]) | fold change (FC) (Acinetobacter baumannii [14]) | fold change (FC) (Escherichia coli [15]) | fold change (FC) (Escherichia coli [16]) | MIC (Acinetobacter baumannii [17]) [µM] | MIC (Acinetobacter baumannii [18]) [µM] | MIC (Escherichia coli [19]) [µM] | MIC (Klebsiella pneumoniae [20]) [µM] | other results |
| --- | --- | --- | --- | --- | --- | --- | --- | --- | --- | --- | --- | --- | --- | --- | --- | --- | --- | --- | --- | --- | --- |
| CCCCCc1ccc(C(=O)NCCn2cc(CCCCCc3cnc(N)n3Cc3ccc(CCCC)cc3)nn2)cc1 | 2 | < 0.002 | 0.25 | 2 | 8 | 0.5 | 0.063 | 1 | 32 | 32 | 32 | 64 | 8 | 8 | 16 | 64 | > 200 | > 200 | > 200 | > 200 | MIC (Acinetobacter baumannii [21]): < 0.00098 µg/mL; MIC (Acinetobacter baumannii [22]): < 0.00098 µg/mL; MIC (Escherichia coli [23]): < 0.00049 µg/mL; MIC (Escherichia coli [24]): < 0.00049 µg/mL; MIC (Klebsiella pneumoniae [25]): 0.016 µg/mL; fold change (FC) (Acinetobacter baumannii [26]): >2048; fold change (FC) (Acinetobacter baumannii [27]): >2048; fold change (FC) (Escherichia coli [28]): >2048; fold change (FC) (Escherichia coli [29]): >2048; MIC (Acinetobacter baumannii [30]): 10 µM; MIC (Acinetobacter baumannii [31]): 5 µM; MIC (Klebsiella pneumoniae [32]): 10 µM |
| CCCCCCc1ccc(-c2cn(CC)c(N)n2)cc1 | 0.25 | < 0.0019 | 0.125 | 4 | 8 | 4 | 0.5 | 4 | 32 | 256 | >2048 | 128 | 4 | 8 | 2 | 8 | 100 (≈ 27.1 µg/mL) | 100 (≈ 27.1 µg/mL) | 200 (≈ 54.3 µg/mL) | > 200 | MIC (Acinetobacter baumannii [21]): 0.0039 µg/mL; MIC (Acinetobacter baumannii [22]): 0.0078 µg/mL; MIC (Escherichia coli [23]): 0.00098 µg/mL; MIC (Escherichia coli [24]): 0.00049 µg/mL; MIC (Klebsiella pneumoniae [25]): 0.031 µg/mL; fold change (FC) (Acinetobacter baumannii [26]): 512; fold change (FC) (Acinetobacter baumannii [27]): 256; fold change (FC) (Escherichia coli [28]): 2048; fold change (FC) (Escherichia coli [29]): 2048; MIC (Acinetobacter baumannii [30]): 15 µM; MIC (Acinetobacter baumannii [31]): 15 µM; MIC (Klebsiella pneumoniae [32]): 15 µM |
| CCCCCCc1ccc(-c2cn(C(C)C)c(N)n2)cc1 | 1 | 0.016 | 0.5 | 4 | 8 | 8 | 2 | 8 | 32 | 64 | 512 | 32 | 4 | 4 | 0 | 2 | 200 (≈ 57.1 µg/mL) | 200 (≈ 57.1 µg/mL) | 200 (≈ 57.1 µg/mL) | 200 (≈ 57.1 µg/mL) | MIC (Acinetobacter baumannii [21]): 0.016 µg/mL; MIC (Acinetobacter baumannii [22]): 0.016 µg/mL; MIC (Escherichia coli [23]): 0.0039 µg/mL; MIC (Escherichia coli [24]): 0.00049 µg/mL; MIC (Klebsiella pneumoniae [25]): 0.031 µg/mL; fold change (FC) (Acinetobacter baumannii [26]): 128; fold change (FC) (Acinetobacter baumannii [27]): 128; fold change (FC) (Escherichia coli [28]): 256; fold change (FC) (Escherichia coli [29]): 2048; MIC (Acinetobacter baumannii [30]): 20 µM; MIC (Acinetobacter baumannii [31]): 25 µM; MIC (Klebsiella pneumoniae [32]): 20 µM |
